Laboratory results from patent US7632952B2, “Benzothiazoles and the use thereof as medicaments” (Aventis Pharma S.A., priority 2004, dated 2009).
Counter-ions that a name gives are not always drawn.

Columns and labels:
Aurora 2 = target: T1, Aurora 2 (Homo sapiens, UniProt O14965); assay: Aurora 2 kinase radioactivity scintillation test; format: biochemical
T1 construct: A complete recombinant Aurora 2 enzyme, the N-terminal end of which was labeled with histidine; His tag (N); made in house; host or cells: E. coli
T1 sequence (O14965 1-403): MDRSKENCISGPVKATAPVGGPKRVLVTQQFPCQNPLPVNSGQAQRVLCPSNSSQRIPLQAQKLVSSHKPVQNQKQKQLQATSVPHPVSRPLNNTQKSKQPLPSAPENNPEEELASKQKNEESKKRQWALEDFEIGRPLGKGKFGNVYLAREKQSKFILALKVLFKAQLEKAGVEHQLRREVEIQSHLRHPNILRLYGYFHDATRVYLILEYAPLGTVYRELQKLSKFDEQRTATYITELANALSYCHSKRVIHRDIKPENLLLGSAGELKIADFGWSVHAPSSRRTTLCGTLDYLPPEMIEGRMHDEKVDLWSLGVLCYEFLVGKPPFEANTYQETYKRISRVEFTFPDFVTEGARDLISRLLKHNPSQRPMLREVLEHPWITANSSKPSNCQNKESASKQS
Experimental: The inhibitory effect of the compounds toward the kinase Aurora 2 is determined via a radioactivity scintillation test.
A complete recombinant Aurora 2 enzyme, the N-terminal end of which was labeled with histidine, was expressed in E. coli and purified to a quality close to homogeneity.
The C-terminal fragment (Q1687-H2101) of an NuMA (nuclear protein which is associated with the Mitotic Apparatus) expressed in E. coli, and the N-terminal end of which was labeled with histidine, was purified by chromatography with nickel chelate and used as substrate in the Aurora 2 kinase test.
The kinase activity of Aurora 2 is measured by scintillation on a microplate saturated with nickel chelate (New England Nuclear, SMP107 model). Each well contains 100 μl of the following solution: 0.02 μM of Aurora 2; 0.5 μM of NuMA substrate; 1 μM of ATP supplemented with 0.5 μCi of ATP-[^33P]. The solutions are incubated for 45 minutes at 37° C. The test buffer is then removed and the wells are rinsed twice with 300 μl of kinase buffer. The radioactivity is measured in each well using a Packard Model Top Count NXT machine.
The background noise is measured in duplicate in wells containing the radioactive ATP alone containing buffered kinase treated in the same manner as for the other samples.
The activity of the control is determined by measuring in duplicate the radioactivity in the complete test mixture (ATP, Aurora 2 and NuMA substrate), in the absence of test compound.
The inhibition of the activity of Aurora 2 with a compound of the invention is expressed as a percentage of inhibition of the control activity in the absence of test compound. Staurosporin is added to each plate as inhibition control.

CDK4/cyclin D1 = CDK4/cyclin D1 (Homo sapiens, UniProt P11802); assay: CDK4/cyclin D1 Flashplate test in 96-well format; format: biochemical
Method in brief: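 CDK4-HA/cyclin D1-(His)6 complex from coinfected Sf9 cells, 25 nM final, phosphorylating 1.8 μM biotinylated pRb peptide in HEPES pH 7.5 with MgCl2, DTT and [γ-33P]ATP at 30 °C. 33P incorporation captured on streptavidin Flashplates and read by scintillation counting; IC50 from seven-point inhibitor dilutions.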

HeLa = HeLa proliferation; format: cell-based; conditions: Homo sapiens, read-out: HeLa proliferation EC50 (nM) DG

Chain of CDK4/cyclin D1 (P11802 whole entry): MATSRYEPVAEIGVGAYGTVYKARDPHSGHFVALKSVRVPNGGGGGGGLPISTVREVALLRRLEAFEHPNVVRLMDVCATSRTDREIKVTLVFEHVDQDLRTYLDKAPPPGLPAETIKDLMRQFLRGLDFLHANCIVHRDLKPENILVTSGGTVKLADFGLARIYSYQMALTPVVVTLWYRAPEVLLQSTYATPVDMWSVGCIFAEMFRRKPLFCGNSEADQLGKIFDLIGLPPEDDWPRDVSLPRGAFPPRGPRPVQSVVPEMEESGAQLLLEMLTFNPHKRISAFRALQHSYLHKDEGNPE
Chain of CDK4/cyclin D1 (P24385 whole entry partner): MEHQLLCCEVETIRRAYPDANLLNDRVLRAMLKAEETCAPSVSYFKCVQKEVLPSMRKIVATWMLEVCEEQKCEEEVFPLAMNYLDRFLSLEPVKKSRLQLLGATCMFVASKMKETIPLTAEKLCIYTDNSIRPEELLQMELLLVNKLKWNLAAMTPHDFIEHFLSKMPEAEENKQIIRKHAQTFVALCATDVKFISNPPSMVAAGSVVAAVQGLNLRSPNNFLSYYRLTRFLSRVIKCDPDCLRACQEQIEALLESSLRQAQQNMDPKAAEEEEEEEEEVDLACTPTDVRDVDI

IC50 (Aurora 2)	IC50 (CDK4/cyclin D1)	EC50 (HeLa)	Structure (SMILES)
172 nM	205 nM	16 nM	CC(C)NCCNc1ccc(S(=O)(=O)Oc2ccc3nc(NC(=O)C4CC4)sc3c2)cc1 [Example 53, 4-(2-isopropylaminoethylamino)benzenesulfonic 2-(cyclopropanecarbonylamino)benzothiazol-6-yl ester hydrochloride]
1050 nM	1390 nM	8370 nM	CC(C)(O)CNc1ccc(S(=O)(=O)Oc2ccc3nc(NC(=O)CCc4cccnc4)sc3c2)cc1 [Example 63, 4-(2-hydroxy-2-methylpropylamino)benzene-sulfonic acid 2-(3-pyrid-3-ylpropionylamino)benzothiazol-6-yl ester hydro-chloride]
3080 nM	313 nM	76 nM	COCC(=O)Nc1nc2ccc(OS(=O)(=O)c3ccc(NCCN(C(C)C)C(C)C)cc3)cc2s1 [Example 44, 4-(2-Diisopropylaminoethylamino)benzenesulfonic acid 2-(2-methoxyacetylamino)benzothiazol-6-yl ester]
34 nM	944 nM	807 nM	CNc1ccc(S(=O)(=O)Oc2ccc3nc(NC(=O)C4CC4)sc3c2)cc1 [Example 10, 4-methylaminobenzenesulfonic 2-(cyclopropane-carbonylamino)benzothiazol-6-yl ester]
105 nM	924 nM	80 nM	CC(C)(O)CNc1ccc(S(=O)(=O)Oc2ccc3nc(NC(=O)C4CC4)sc3c2)cc1 [Example 11, 4-(2-hydroxy-2-methylpropylamino)benzene-sulfonic 2-(cyclopropanecarbonylamino)benzothiazol-6-yl ester]
2010 nM	119 nM	36 nM	CC(=O)Nc1nc2ccc(OS(=O)(=O)c3ccc(NCCN(C(C)C)C(C)C)cc3)cc2s1 [Example 43, 4-(2-Diisopropylaminoethylamino)benzenesulfonic acid 2-acetylaminobenzothiazol-6-yl ester]
65 nM	931 nM	611 nM	O=C(Nc1nc2ccc(OS(=O)(=O)c3ccc(NCCCn4ccnc4)cc3)cc2s1)C1CC1 [Example 9, 4-(3-imidazol-1-ylpropylamino)benzenesulfonic 2-(cyclopropanecarbonylamino)benzothiazol-6-yl ester]
5830 nM	221 nM	43 nM	CC(C)C(=O)Nc1nc2ccc(OS(=O)(=O)c3ccc(NCCN(C(C)C)C(C)C)cc3)cc2s1 [Example 55, 4-(2-diisopropylaminoethylamino)benzenesulfonic acid 2-isobutyrylaminobenzothiazol-6-yl ester hydrochloride]
3180 nM	125 nM	79 nM	CCC(=O)Nc1nc2ccc(OS(=O)(=O)c3ccc(NCCN(C(C)C)C(C)C)cc3)cc2s1 [Example 57, 4-(2-diisopropylaminoethylamino)benzenesulfonic acid 2-propionylaminobenzothiazol-6-yl ester hydrochloride]
2800 nM	265 nM	199 nM	CC(C)N(CCNc1ccc(S(=O)(=O)Oc2ccc3nc(NC(=O)C4CCC4)sc3c2)cc1)C(C)C [Example 60, 4-(2-diisopropylaminoethylamino)benzenesulfonic acid 2-(cyclobutanecarbonylamino)benzothiazol-6-yl ester hydrochloride]
6940 nM	> 10000 nM	> 12500 nM	O=C(Nc1nc2ccc(OS(=O)(=O)c3ccc(-c4ccccn4)s3)cc2s1)C1CC1 [Example 85, 5-pyridin-2-ylthiophene-2-sulfonic acid 2-(cyclopropanecarbonylamino)benzothiazol-6-yl ester]
826 nM	170 nM	122 nM	CC(=O)Nc1nc2ccc(OS(=O)(=O)c3ccc(NCCNC(C)C)cc3)cc2s1 [Example 65, 4-(2-isopropylaminoethylamino)benzenesulfonic acid 2-acetylaminobenzothiazol-6-yl ester]
172 nM	205 nM	16 nM	CC(C)N(CCNc1ccc(S(=O)(=O)Oc2ccc3nc(NC(=O)C4CC4)sc3c2)cc1)C(C)C [Example 12, 4-(2-diisopropylaminoethylamino)benzenesulfonic 2-(cyclopropanecarbonylamino)benzothiazol-6-yl ester]
325 nM	> 10000 nM	8390 nM	CC(C)N(CCNc1ccc(S(=O)(=O)Oc2ccc3nc(NC(=O)C4(N)CCCC4)sc3c2)cc1)C(C)C [Example 41, 4-(2-diisopropylaminoethylamino)benzenesulfonic acid 2-[(1-aminocyclopentanecarbonyl)amino]benzothiazol-6-yl ester]
2890 nM	341 nM	289 nM	CC(C)N(CCNc1ccc(S(=O)(=O)Oc2ccc3nc(NC(=O)C4CCCC4)sc3c2)cc1)C(C)C [Example 45, 4-(2-Diisopropylaminoethylamino)benzenesulfonic acid 2-(cyclo-pentanecarbonylamino)benzothiazol-6-yl ester]
258 nM	3320 nM	2510 nM	CC(C)(CNc1ccc(S(=O)(=O)Oc2ccc3nc(NC(=O)C4CC4)sc3c2)cc1)OP(=O)(O)O [Example 89, 4-(2-methyl-2-phosphonooxypropylamino)benzene-sulfonic acid 2-(cyclopropanecarbonylamino)benzothiazol-6-yl ester]
68 nM	358 nM	4430 nM	O=C(Nc1nc2ccc(OS(=O)(=O)c3cccs3)cc2s1)C1CC1 [Example 33h, Thiophene-2-sulfonic acid 2-(cyclopro-panecarbonylamino)benzothiazol-6-yl ester]
